Consider 26 substances from the OligoGym collection.

HELM strings list units from the 5' end as sugar, base in round brackets, then linkage (d deoxyribose, r ribose, m 2'-O-methyl, p phosphodiester). Strings are as the collection lists them; they lack the last nucleoside at the 3' end of the tested compound. [moe] = 2'-O-(2-methoxyethyl) (MOE); [sp] = phosphorothioate linkage; [m5C] = 5-methylcytosine

The data set concerns the target ATXN2. The data set is described as follows: mouse, dose not given. The following applies: ASO.

Consider “RNA1{[moe](A)[sp].[moe]([m5C])p.[moe](T)p.[moe](T)p.[moe]([m5C])p.d(A)[sp].d([m5C])[sp].d(A)[sp].d(T)[sp].d(T)[sp].d(T)[sp].d(G)[sp].d(G)[sp].d(A)[sp].d(G)[sp].[moe]([m5C])p.[moe]([m5C])p.[moe]([m5C])[sp].[moe](T)}$$$$ (last 3' nucleoside missing)”, for which the 3 h FOB score was determined as 5.75 score 0-7.

Take “RNA1{[moe](A)[sp].[moe]([m5C])p.[moe](T)p.[moe](T)p.[moe]([m5C])p.d(T)[sp].d([m5C])[sp].d(T)[sp].d(A)[sp].d(T)[sp].d(T)[sp].d(T)[sp].d([m5C])[sp].d(T)[sp].d(T)[sp].[moe](T)p.[moe](G)p.[moe](T)[sp].[moe]([m5C])}$$$$ (last 3' nucleoside missing)”: the 3 h FOB score is 3 score 0-7.

In the case of “RNA1{[moe](A)[sp].[moe]([m5C])p.[moe](T)p.[moe](T)p.d(T)[sp].d(T)[sp].d([m5C])[sp].d(T)[sp].d([m5C])[sp].d(A)[sp].d(T)[sp].d(G)[sp].d(T)[sp].d(G)[sp].[moe]([m5C])p.[moe](G)p.[moe](G)p.[moe]([m5C])[sp].[moe](A)}$$$$ (last 3' nucleoside missing)”, the 3 h FOB score came out at 2.5 score 0-7.

In turn, “RNA1{[moe](A)[sp].[moe]([m5C])p.[moe](T)p.[moe](T)p.d([m5C])[sp].d(T)[sp].d([m5C])[sp].d(T)[sp].d(A)[sp].d(T)[sp].d(T)[sp].d(T)[sp].d([m5C])[sp].d(T)[sp].[moe](T)p.[moe](T)p.[moe](G)p.[moe](T)[sp].[moe]([m5C])}$$$$ (last 3' nucleoside missing)” registered a 3 h FOB score of 0 score 0-7.

Substance “RNA1{[moe](A)[sp].[moe]([m5C])p.[moe](T)p.[moe]([m5C])p.[moe](T)p.d([m5C])[sp].d([m5C])[sp].d(A)[sp].d(T)[sp].d(T)[sp].d(A)[sp].d(T)[sp].d(T)[sp].d(T)[sp].d([m5C])[sp].[moe](T)p.[moe](T)p.[moe]([m5C])[sp].[moe](A)}$$$$ (last 3' nucleoside missing)” showed a 3 h FOB score of 1 score 0-7.

With “RNA1{[moe](G)[sp].[moe](A)p.[moe](A)p.[moe](G)p.[moe](T)p.d([m5C])[sp].d(T)[sp].d(T)[sp].d(G)[sp].d(T)[sp].d(T)[sp].d([m5C])[sp].d(A)[sp].d(G)[sp].d(T)[sp].[moe](G)p.[moe](T)p.[moe]([m5C])[sp].[moe]([m5C])}$$$$ (last 3' nucleoside missing)”, the 3 h FOB score came to 3.75 score 0-7.

Substance “RNA1{[moe](G)[sp].[moe](A)p.[moe](A)p.[moe](G)p.[moe]([m5C])p.d(A)[sp].d(G)[sp].d(A)[sp].d(T)[sp].d(T)[sp].d(T)[sp].d(T)[sp].d(T)[sp].d(T)[sp].d(T)[sp].[moe](T)p.[moe](T)p.[moe](T)[sp].[moe](T)}$$$$ (last 3' nucleoside missing)” returned a 3 h FOB score of 3 score 0-7.

Substance “RNA1{[moe](G)[sp].[moe](A)p.[moe](A)p.[moe](T)p.[moe]([m5C])p.d(T)[sp].d(T)[sp].d(A)[sp].d(T)[sp].d(T)[sp].d(A)[sp].d(A)[sp].d(G)[sp].d([m5C])[sp].d(A)[sp].[moe](A)p.[moe](G)p.[moe](T)[sp].[moe]([m5C])}$$$$ (last 3' nucleoside missing)” had a 3 h FOB score of 2.5 score 0-7.

As for “RNA1{[moe](G)[sp].[moe](A)p.[moe](A)p.[moe]([m5C])p.[moe](A)p.d([m5C])[sp].d([m5C])[sp].d(A)[sp].d(T)[sp].d(G)[sp].d(A)[sp].d([m5C])[sp].d(T)[sp].d(G)[sp].d(A)[sp].[moe](T)p.[moe]([m5C])p.[moe]([m5C])[sp].[moe]([m5C])}$$$$ (last 3' nucleoside missing)”, the 3 h FOB score is 4 score 0-7.

As to “RNA1{[moe](G)[sp].[moe](A)p.[moe](A)p.[moe]([m5C])p.[moe](T)p.d(G)[sp].d(G)[sp].d(A)[sp].d(T)[sp].d(T)[sp].d([m5C])[sp].d(T)[sp].d(G)[sp].d(T)[sp].d(A)[sp].[moe]([m5C])p.[moe](T)p.[moe](T)[sp].[moe](T)}$$$$ (last 3' nucleoside missing)”, the 3 h FOB score amounted to 4 score 0-7.

Substance “RNA1{[moe](G)[sp].[moe](A)p.[moe](A)p.[moe]([m5C])p.[moe]([m5C])p.d(A)[sp].d(G)[sp].d(A)[sp].d(A)[sp].d(T)[sp].d(T)[sp].d([m5C])[sp].d(G)[sp].d(G)[sp].d(G)[sp].[moe](T)p.[moe](T)p.[moe](G)[sp].[moe](A)}$$$$ (last 3' nucleoside missing)” came in with a 3 h FOB score of 3.75 score 0-7.

For the substance “RNA1{[moe](G)[sp].[moe](A)p.[moe](G)p.[moe](T)p.[moe](T)p.d(T)[sp].d(T)[sp].d(T)[sp].d(G)[sp].d([m5C])[sp].d([m5C])[sp].d(T)[sp].d(T)[sp].d([m5C])[sp].d([m5C])[sp].[moe](A)p.[moe](T)p.[moe](T)[sp].[moe](T)}$$$$ (last 3' nucleoside missing)”, the 3 h FOB score came to 1 score 0-7.

In turn, “RNA1{[moe](G)[sp].[moe](A)p.[moe](G)p.[moe](T)p.[moe](T)p.d([m5C])[sp].d(A)[sp].d([m5C])[sp].d([m5C])[sp].d(T)[sp].d(G)[sp].d([m5C])[sp].d(A)[sp].d(T)[sp].d([m5C])[sp].[moe]([m5C])p.[moe]([m5C])p.[moe](A)[sp].[moe](G)}$$$$ (last 3' nucleoside missing)” yielded a 3 h FOB score of 6 score 0-7.

“RNA1{[moe](G)[sp].[moe](A)p.[moe](T)p.[moe](A)p.[moe](T)p.d(G)[sp].d(T)[sp].d(T)[sp].d(A)[sp].d([m5C])[sp].d(A)[sp].d(A)[sp].d(A)[sp].d(T)[sp].d(T)[sp].[moe]([m5C])p.[moe](T)p.[moe]([m5C])[sp].[moe](T)}$$$$ (last 3' nucleoside missing)” came in with a 3 h FOB score of 0 score 0-7.

In turn, “RNA1{[moe](G)[sp].[moe](A)p.[moe](T)p.[moe](G)p.[moe](T)p.d(T)[sp].d(T)[sp].d([m5C])[sp].d(A)[sp].d(T)[sp].d(T)[sp].d(G)[sp].d(G)[sp].d(G)[sp].d(T)[sp].[moe](T)p.[moe](T)p.[moe](A)[sp].[moe](A)}$$$$ (last 3' nucleoside missing)” showed a 3 h FOB score of 6.25 score 0-7.

As to “RNA1{[moe](G)[sp].[moe](A)p.[moe](T)p.[moe](T)p.[moe](A)p.d(A)[sp].d([m5C])[sp].d(G)[sp].d(G)[sp].d(T)[sp].d(T)[sp].d(G)[sp].d([m5C])[sp].d(T)[sp].d(T)[sp].[moe](A)p.[moe](G)p.[moe](G)[sp].[moe](G)}$$$$ (last 3' nucleoside missing)”, the 3 h FOB score was 6.5 score 0-7.

The substance “RNA1{[moe](G)[sp].[moe](A)p.[moe](T)p.[moe](T)p.[moe]([m5C])[sp].d(T)[sp].d(G)[sp].d(T)[sp].d(A)[sp].d([m5C])[sp].d(T)[sp].d(T)[sp].d(T)[sp].[moe](T)p.[moe]([m5C])p.[moe](T)[sp].[moe]([m5C])}$$$$ (last 3' nucleoside missing)” returned a 3 h FOB score of 1 score 0-7.

Regarding “RNA1{[moe](G)[sp].[moe](A)p.[moe](T)p.[moe](T)p.[moe]([m5C])p.d(T)[sp].d(G)[sp].d(T)[sp].d(A)[sp].d([m5C])[sp].d(T)[sp].d(T)[sp].d(T)[sp].d(T)[sp].d([m5C])[sp].[moe](T)p.[moe]([m5C])p.[moe](A)[sp].[moe](T)}$$$$ (last 3' nucleoside missing)”, the 3 h FOB score stood at 4.5 score 0-7.

“RNA1{[moe](G)[sp].[moe](A)p.[moe]([m5C])p.[moe](A)p.[moe](T)p.d(G)[sp].d([m5C])[sp].d(G)[sp].d(G)[sp].d(T)[sp].d(T)[sp].d(T)[sp].d([m5C])[sp].d(A)[sp].d([m5C])[sp].[moe]([m5C])p.[moe](A)p.[moe](T)[sp].[moe](T)}$$$$ (last 3' nucleoside missing)”: the 3 h FOB score was found to be 4 score 0-7.

With “RNA1{[moe](G)[sp].[moe](G)[sp].[moe](A)[sp].[moe](G)[sp].[moe]([m5C])[sp].d(T)[sp].d(G)[sp].d(G)[sp].d(A)[sp].d(G)[sp].d(A)[sp].d(A)[sp].d([m5C])[sp].d([m5C])[sp].d(A)[sp].[moe](T)[sp].[moe](G)[sp].[moe](A)[sp].[moe](G)}$$$$ (last 3' nucleoside missing)”, the 3 h FOB score is 7 score 0-7.

“RNA1{[moe](G)[sp].[moe](G)p.[moe](A)p.[moe](A)p.[moe](T)p.d([m5C])[sp].d(T)[sp].d(T)[sp].d(A)[sp].d(T)[sp].d(T)[sp].d(A)[sp].d(A)[sp].d(G)[sp].d([m5C])[sp].[moe](A)p.[moe](A)p.[moe](G)[sp].[moe](T)}$$$$ (last 3' nucleoside missing)” registered a 3 h FOB score of 4.5 score 0-7.

In turn, “RNA1{[moe](G)[sp].[moe](G)p.[moe](A)p.[moe](T)p.[moe](A)p.d([m5C])[sp].d(A)[sp].d(A)[sp].d(A)[sp].d(T)[sp].d(T)[sp].d([m5C])[sp].d(T)[sp].d(A)[sp].d(G)[sp].[moe](G)p.[moe]([m5C])p.[moe]([m5C])[sp].[moe](A)}$$$$ (last 3' nucleoside missing)” gave a 3 h FOB score of 4 score 0-7.

The substance “RNA1{[moe](G)[sp].[moe](G)p.[moe](A)p.[moe](T)p.[moe](T)[sp].d([m5C])[sp].d(T)[sp].d(G)[sp].d(T)[sp].d(A)[sp].d([m5C])[sp].d(T)[sp].d(T)[sp].[moe](T)p.[moe](T)p.[moe]([m5C])[sp].[moe](T)}$$$$ (last 3' nucleoside missing)” yielded a 3 h FOB score of 2.5 score 0-7.

As to “RNA1{[moe](G)[sp].[moe](G)p.[moe](A)p.[moe](T)p.[moe](T)p.d(G)[sp].d(T)[sp].d(T)[sp].d(T)[sp].d(T)[sp].d([m5C])[sp].d(T)[sp].d(T)[sp].d([m5C])[sp].d(A)[sp].[moe](T)p.[moe](T)p.[moe](A)[sp].[moe](T)}$$$$ (last 3' nucleoside missing)”, the 3 h FOB score turned out to be 0 score 0-7.

As for “RNA1{[moe](G)[sp].[moe](G)p.[moe](A)p.[moe](T)p.[moe](T)p.d([m5C])[sp].d(T)[sp].d(G)[sp].d(T)[sp].d(A)[sp].d([m5C])[sp].d(T)[sp].d(T)[sp].d(T)[sp].d(T)[sp].[moe]([m5C])p.[moe](T)p.[moe]([m5C])[sp].[moe](A)}$$$$ (last 3' nucleoside missing)”, the 3 h FOB score is 1 score 0-7.

As to “RNA1{[moe](G)[sp].[moe](G)p.[moe](A)p.[moe]([m5C])p.[moe](A)p.d(A)[sp].d(G)[sp].d(A)[sp].d(A)[sp].d(A)[sp].d(T)[sp].d(T)[sp].d(T)[sp].d(T)[sp].d([m5C])[sp].[moe](A)p.[moe](G)p.[moe](T)[sp].[moe](T)}$$$$ (last 3' nucleoside missing)”, the 3 h FOB score was 4.5 score 0-7.
